In patent US10590140B2, “Tetrahydropyrimidodiazepine and dihydropyridodiazepine compounds for treating pain and pain related conditions” (ESTEVE PHARMACEUTICALS, S.A., priority 2016, dated 2020) one finds Ki data, which are given here for 17 compounds.

Read-outs that look alike come from different tables or passages of the source.

Assay [1] concerns the target human norepinephrine transporter (NET) (Homo sapiens (Human), UniProt P23975). As to the kind of experiment: Binding assay to human norepinephrine transporter (NET) ([3H]-Nisoxetin). Conditions: Table 2, dual compounds; [3H]-Nisoxetin binding. On the procedure:
Binding Assay to Human Norepinephrine Transporter (NET).
Human norepinephrine transporter (NET) enriched membranes (5 μg) were incubated with 5 nM of radiolabeled [3H]-Nisoxetin in assay buffer containing 50 mM Tris-HCl, 120 mM NaCl, 5 mM KCl, pH 7.4.
NSB (non specific binding) was measured by adding 1 μM. After 60 min incubation at 4° C., binding reaction was terminated by filtering through Multiscreen GF/C (Millipore) presoaked in 0.5% polyethyleneimine in Vacuum Manifold Station, followed by 3 washes with ice-cold filtration buffer containing 50 mM Tris-HCl, 0.9% NaCl, pH 7.4.
Filter plates were dried at 60° C. for 1 hour and 30 μl of scintillation cocktail were added to each well before radioactivity reading.

The target of assay [2] is human α2δ-1 subunit of Cav2.2 calcium channel (Homo sapiens (Human), UniProt P54289). As to the kind of experiment: Binding assay to human α2δ-1 subunit of Cav2.2 calcium channel ([3H]-Gabapentin). Particulars: read-out: Ki (nM) α2δ-1. A digest of the protocol:
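Radioactivity on dried GF/C filters quantified by scintillation after filtration and three cold Tris-HCl (pH 7.4) washes. Incubation ran 60 min at 27° C with [3H]-gabapentin; 10 μM pregabalin gave nonspecific binding.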

[3] abbreviates: Table 2, dual compounds, [3H]-Gabapentin binding.
[4] abbreviates: binding to α2δ-1, [3H]-Gabapentin.

Sequence of human α2δ-1 subunit of Cav2.2 calcium channel (P54289 25-1103): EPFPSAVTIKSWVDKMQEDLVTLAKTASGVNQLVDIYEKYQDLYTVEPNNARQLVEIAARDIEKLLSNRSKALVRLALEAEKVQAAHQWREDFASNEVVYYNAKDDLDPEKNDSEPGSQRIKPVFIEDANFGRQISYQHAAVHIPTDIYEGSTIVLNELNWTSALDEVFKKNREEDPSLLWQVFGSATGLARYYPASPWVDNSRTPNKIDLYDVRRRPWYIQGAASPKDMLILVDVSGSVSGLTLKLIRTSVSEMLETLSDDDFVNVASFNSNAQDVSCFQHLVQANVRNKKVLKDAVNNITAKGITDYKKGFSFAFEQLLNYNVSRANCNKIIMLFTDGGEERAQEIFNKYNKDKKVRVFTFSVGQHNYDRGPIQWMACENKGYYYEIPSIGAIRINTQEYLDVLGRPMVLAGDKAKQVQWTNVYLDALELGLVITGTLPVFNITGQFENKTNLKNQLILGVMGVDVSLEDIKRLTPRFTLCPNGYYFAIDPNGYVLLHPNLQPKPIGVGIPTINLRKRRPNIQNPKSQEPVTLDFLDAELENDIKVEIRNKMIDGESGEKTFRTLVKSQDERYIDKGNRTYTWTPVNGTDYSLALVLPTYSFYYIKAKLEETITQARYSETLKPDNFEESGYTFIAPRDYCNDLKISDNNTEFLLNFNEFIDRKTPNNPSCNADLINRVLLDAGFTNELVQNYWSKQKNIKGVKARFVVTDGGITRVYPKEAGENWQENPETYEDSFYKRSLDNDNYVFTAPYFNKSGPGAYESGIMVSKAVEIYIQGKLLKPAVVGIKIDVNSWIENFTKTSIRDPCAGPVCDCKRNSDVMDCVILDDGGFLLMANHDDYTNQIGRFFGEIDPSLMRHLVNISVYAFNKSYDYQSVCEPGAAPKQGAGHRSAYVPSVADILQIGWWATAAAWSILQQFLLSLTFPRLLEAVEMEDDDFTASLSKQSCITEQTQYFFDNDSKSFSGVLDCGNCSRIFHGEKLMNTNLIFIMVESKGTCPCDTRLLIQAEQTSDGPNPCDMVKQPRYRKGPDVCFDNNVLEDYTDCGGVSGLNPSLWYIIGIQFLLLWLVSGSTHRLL
Sequence of human norepinephrine transporter (NET) (P23975 whole entry): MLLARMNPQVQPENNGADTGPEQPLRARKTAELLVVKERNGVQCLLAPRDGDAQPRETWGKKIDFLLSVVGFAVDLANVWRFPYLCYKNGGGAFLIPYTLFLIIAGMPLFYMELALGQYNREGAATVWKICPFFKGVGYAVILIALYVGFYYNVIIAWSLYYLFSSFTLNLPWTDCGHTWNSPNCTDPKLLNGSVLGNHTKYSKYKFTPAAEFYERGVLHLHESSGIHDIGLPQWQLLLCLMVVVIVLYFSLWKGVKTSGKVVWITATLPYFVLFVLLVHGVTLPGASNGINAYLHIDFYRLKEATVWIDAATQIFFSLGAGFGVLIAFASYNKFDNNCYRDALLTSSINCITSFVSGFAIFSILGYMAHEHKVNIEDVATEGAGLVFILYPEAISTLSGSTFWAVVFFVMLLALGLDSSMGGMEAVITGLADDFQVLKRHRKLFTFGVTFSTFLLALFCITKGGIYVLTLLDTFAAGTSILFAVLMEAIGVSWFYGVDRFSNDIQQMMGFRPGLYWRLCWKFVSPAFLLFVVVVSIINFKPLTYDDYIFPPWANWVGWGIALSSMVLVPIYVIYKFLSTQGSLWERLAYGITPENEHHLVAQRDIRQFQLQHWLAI

The term Ki denotes the equilibrium dissociation constant of an inhibitor or competing ligand from its target. `CCNc1ncc2c(n1)N(C)CCN(c1cccc(-n3cc(CN(C)CC4CC4)nn3)c1)C2=O` [Example 246, 6-(3-(4-(((cyclopropylmethyl)(methyl)amino)methyl)-1H-1,2,3-triazol-1-yl)phenyl)-2-(ethylamino)-9-methyl-6,7,8,9-tetrahydro-5H-pyrimido[4,5-e][1,4]diazepin-5-one]: the Ki in assay [1], in assay [2] (setting [3]) and in assay [2] (setting [4]) was 100 to 500 nM each time.
As to `CCNc1ncc2c(n1)N(C)CCN(c1cccc(-n3cc(CN(C)CCc4ccccc4)cn3)c1)C2=O` [Example 252, 2-(ethylamino)-9-methyl-6-(3-(4-((methyl(phenethyl)amino)methyl)-1H-pyrazol-1-yl)phenyl)-6,7,8,9-tetrahydro-5H-pyrimido[4,5-e][1,4]diazepin-5-one], the Ki was 100 to 500 nM in assay [1], 500 to 3000 nM in assay [2] (setting [3]) and 500 to 3000 nM in assay [2] (setting [4]).
In the case of `CCNc1ncc2c(n1)N(C)CCN(c1cccc(-n3cnc(CN(C)Cc4ccccc4)c3)c1)C2=O` [Example 253, 6-(3-(4-((benzyl(methyl)amino)methyl)-1H-imidazol-1-yl)phenyl)-2-(ethylamino)-9-methyl-6,7,8,9-tetrahydro-5H-pyrimido[4,5-e][1,4]diazepin-5-one], the Ki in assay [1], in assay [2] (setting [3]) and in assay [2] (setting [4]) was 100 to 500 nM throughout.
For the compound `CCNc1ncc2c(n1)N(C)CCN(c1cccc(-n3cnc(CN(C)CCc4ccccc4)c3)c1)C2=O` [Example 254, 2-(ethylamino)-9-methyl-6-(3-(4-((methyl(phenethyl)amino)methyl)-1H-imidazol-1-yl)phenyl)-6,7,8,9-tetrahydro-5H-pyrimido[4,5-e][1,4]diazepin-5-one], the figures for the Ki in assay [1], in assay [2] (setting [3]) and in assay [2] (setting [4]) were 500 to 1000 nM, 500 to 3000 nM and 500 to 3000 nM, respectively.
In the case of `CCNc1ncc2c(n1)N(C)CCN(c1cccc(C3CCN(CCc4ccccc4)CC3)c1)C2=O` [Example 261, 2-(ethylamino)-9-methyl-6-(3-(1-phenethylpiperidin-4-yl)phenyl)-6,7,8,9-tetrahydro-5H-pyrimido[4,5-e][1,4]diazepin-5-one], the Ki in assay [1], in assay [2] (setting [3]) and in assay [2] (setting [4]) was 100 to 500 nM throughout.
Turning to `CCNc1ncc2c(n1)N(C)CCN(c1cccc(OCCN(C)Cc3ccccc3)c1)C2=O` [Example 264, 6-(3-(2-(benzyl(methyl)amino)ethoxy)phenyl)-2-(ethylamino)-9-methyl-6,7,8,9-tetrahydro-5H-pyrimido[4,5-e][1,4]diazepin-5-one], the Ki in assay [1], in assay [2] (setting [3]) and in assay [2] (setting [4]) was 100 to 500 nM throughout.
Turning to `CCNc1ncc2c(n1)N(C)CCN(c1cccc(OCCN(C)CCc3ccccc3)c1)C2=O` [Example 265, 2-(ethylamino)-9-methyl-6-(3-(2-(methyl(phenethyl)amino)ethoxy)phenyl)-6,7,8,9-tetrahydro-5H-pyrimido[4,5-e][1,4]diazepin-5-one], the Ki in assay [1], in assay [2] (setting [3]) and in assay [2] (setting [4]) was 100 to 500 nM in each case.
As for `CSc1ncc2c(n1)N(C)CCN(c1cccc(COC3(c4ccccc4)CCN(C)CC3)c1)C2=O` [Example 271, 9-methyl-6-(3-(((1-methyl-4-phenylpiperidin-4-yl)oxy)methyl)phenyl)-2-(methylthio)-6,7,8,9-tetrahydro-5H-pyrimido[4,5-e][1,4]diazepin-5-one], the Ki in assay [1] was more than 1000 nM; in assay [2] (setting [3]) it was more than 3000 nM; in assay [2] (setting [4]), more than 3000 nM.
For `CCNc1ncc2c(n1)N(C)CCN(c1cccc(-n3cc(CN4CCC(c5ccccc5)CC4)nn3)c1)C2=O` [Example 278, 2-(Ethylamino)-9-methyl-6-(3-(4-((4-phenylpiperidin-1-yl)methyl)-1H-1,2,3-triazol-1-yl)phenyl)-6,7,8,9-tetrahydro-5H-pyrimido[4,5-e][1,4]diazepin-5-one], the Ki in assay [1] was less than 100 nM; in assay [2] (setting [3]), 500 to 3000 nM; in assay [2] (setting [4]) it was 500 to 3000 nM.
On to `CCNc1ncc2c(n1)N(C)CCN(c1cccc(-n3cc(CN4CCCCC4)nn3)c1)C2=O` [Example 281, 2-(ethylamino)-9-methyl-6-(3-(4-(piperidin-1-ylmethyl)-1H-1,2,3-triazol-1-yl)phenyl)-6,7,8,9-tetrahydro-5H-pyrimido[4,5-e][1,4]diazepin-5-one], for which the Ki in assay [1], in assay [2] (setting [3]) and in assay [2] (setting [4]) was 100 to 500 nM each time.
As for `CCNc1ncc2c(n1)N(C)CCN(c1cccc(-n3cc(CNCC4CC4)nn3)c1)C2=O` [Example 285, 6-(3-(4-(((cyclopropylmethyl)amino)methyl)-1H-1,2,3-triazol-1-yl)phenyl)-2-(ethylamino)-9-methyl-6,7,8,9-tetrahydro-5H-pyrimido[4,5-e][1,4]diazepin-5-one], the Ki in assay [1], in assay [2] (setting [3]) and in assay [2] (setting [4]) was 100 to 500 nM in each case.
Regarding `CCNc1ncc2c(n1)N(C)CCN(c1cccc(-n3cc(CN(C)Cc4ccc(F)cc4)nn3)c1)C2=O` [Example 287, 2-(ethylamino)-6-(3-(4-(((4-fluorobenzyl)(methyl)amino)methyl)-1H-1,2,3-triazol-1-yl)phenyl)-9-methyl-6,7,8,9-tetrahydro-5H-pyrimido[4,5-e][1,4]diazepin-5-one], the values for the Ki in assay [1], in assay [2] (setting [3]) and in assay [2] (setting [4]) were less than 100 nM, 500 to 3000 nM and 500 to 3000 nM, respectively.
Turning to `CCNc1ncc2c(n1)N(C)CCN(c1cccc(-n3cc(CN(C)Cc4ccccn4)nn3)c1)C2=O` [Example 288, 2-(ethylamino)-9-methyl-6-(3-(4-((methyl(pyridin-2-ylmethyl)amino)methyl)-1H-1,2,3-triazol-1-yl)phenyl)-6,7,8,9-tetrahydro-5H-pyrimido[4,5-e][1,4]diazepin-5-one], the Ki was 100 to 500 nM in assay [1], 500 to 3000 nM in assay [2] (setting [3]) and 500 to 3000 nM in assay [2] (setting [4]).
For `CNCC[C@H](Oc1cccc(N2CCN(C)c3cc(N)ncc3C2=O)c1)c1cccs1` [Example 304, (S)-8-amino-1-methyl-4-(3-(3-(methylamino)-1-(thiophen-2-yl)propoxy)phenyl)-1,2,3,4-tetrahydro-5H-pyrido[4,3-e][1,4]diazepin-5-one], the Ki in assay [1], in assay [2] (setting [3]) and in assay [2] (setting [4]) was 100 to 500 nM in each case.
In the case of `CNCC[C@H](Oc1ccc(CN2CCN(C)c3cc(N)ncc3C2=O)cc1)c1cccs1` [Example 305, (S)-8-amino-1-methyl-4-(4-(3-(methylamino)-1-(thiophen-2-yl)propoxy)benzyl)-1,2,3,4-tetrahydro-5H-pyrido[4,3-e][1,4]diazepin-5-one], the Ki in assay [1], in assay [2] (setting [3]) and in assay [2] (setting [4]) was 100 to 500 nM each time.
Regarding `CNCCC(Oc1cccc(N2CCN(C)c3cc(C)ncc3C2=O)c1)c1cccs1` (stereo not drawn) [Example 307, 1,8-dimethyl-4-(3-(3-(methylamino)-1-(thiophen-2-yl)propoxy)phenyl)-1,2,3,4-tetrahydro-5H-pyrido[4,3-e][1,4]diazepin-5-one], the Ki in assay [1], in assay [2] (setting [3]) and in assay [2] (setting [4]) was 100 to 500 nM throughout.
Regarding `CNCC[C@H](Oc1ccc(CN2CCN(C)c3cc(C)ncc3C2=O)cc1)c1cccs1` [Example 308, (S)-1,8-dimethyl-4-(4-(3-(methylamino)-1-(thiophen-2-yl)propoxy)benzyl)-1,2,3,4-tetrahydro-5H-pyrido[4,3-e][1,4]diazepin-5-one], the Ki in assay [1], in assay [2] (setting [3]) and in assay [2] (setting [4]) was 100 to 500 nM in each case.
